From patent publication US11401278B2, “Macrocyclic indole derivatives” (The Broad Institute, Inc., priority 2017, dated 2022)
Several values for one entry are separate records, joined by “and”; a condition that tells them apart may be missing. Identical values can stand only once. Counter-ions that a name gives are not always drawn.

How the values were obtained:
[1] = target: BCL-2 (Homo sapiens (Human), UniProt P10415); assay: Protein-protein interaction assay BCL-2/Bad BH3 peptide (BCL-2 assay, TR-FRET); format: binding; details: His-BCL-2 / Bad BH3 peptide, median
Description: Assay 3 Protein-Protein Interaction Assay: BCL-2/Bad BH3 Peptide (BCL-2 Assay)
The dose-dependent inhibition by the compounds described in this invention of the interaction between BCL-2 and the BH3 domain of Bad (both human) was determined using a steady state binding competition assay with time-resolved fluorescence energy transfer (TR-FRET) readout. For that purpose BCL-2 (amino acids 1-211, C-terminal fused to a hexahistidine (6×His) tag (SEQ ID 5) and a synthetic Bad BH3-derived peptide of sequence Biotin-PEG2-PEG2-NLWAAQRYGRELRR-Nle-SDEFVDSFKK-amide (SEQ ID 4) served as protein receptor and tracer ligand respectively. The recombinant BCL-2 protein (expressed in E. coli) was purchased from BPS Bioscience (San Diego, Calif., USA). The Bad BH3-derived peptide can be obtained from e.g. Biosyntan (Berlin, Germany).
In the assay 11 different concentrations of each compound (0.1 nM, 0.33 nM, 1.1 nM, 3.8 nM, 13 nM, 44 nM, 0.15 μM, 0.51 μM, 1.7 μM, 5.9 μM and 20 μM) were typically measured as duplicates in the same microtiter plate. For that, 100-fold concentrated DMSO solutions were prepared by serial dilutions (1:3.4) of a 2 mM stock solution in a clear, 384-well microtiter plate (Greiner Bio-One, Frickenhausen, Germany). From there, 50 nl were transferred in a dark test plate (Greiner Bio-One, Frickenhausen, Germany). The assay was initiated by addition of 2 μl of a 2.5-fold concentrated His-BCL-2 solution (usually for a 1 nM end concentration in 5 μl reaction volume) in aqueous assay buffer [50 mM Tris/HCl pH 7, 100 mM sodium chloride (NaCl), 50 mM potassium fluoride (KF), 0.005% Tween-20, 2 mM DTT, 0.1% bovine gamma globulin (BGG)] to the compounds in the assay plate. This was followed by a 10-minute incubation step at 22° C. for pre-equilibration of the putative complex between His-BCL-2 and the compounds. After that, 3 μl of a 1.67-fold concentrated solution (in assay buffer) consisting of Bad BH3-derived peptide (1 nM end concentration) and TR-FRET detection reagents [1.67 nM anti-His-Eu cryptate and 1.67 nM streptavidin-XL665 (both from Cisbio Bioassays, Codolet, France)], were added.
The mixture was incubated in the dark for one hour at 22° C. and then overnight at 4° C. The formation of BCL-2/Bad complexes was determined by measuring the resonance energy transfer of the anti-His-Eu-cryptate antibody to the streptavidin-XL665 present in the reaction. For that purpose, the fluorescence emission at 620 nm and 665 nm after excitation at 330-350 nm was measured in a TR-FRET measuring instrument, for instance a Rubystar or a Pherastar (both from BMG Lab Technologies, Offenburg, Germany) or a Viewlux (Perkin-Elmer). The ratio of the emission at 665 nm and at 622 nm was used as indicator of the amount of BCL-2/Bad complexes present.
The resulting data (ratio) were normalized, taking 0% inhibition as the mean value of control measurements (usually 32 data points) where all reagents were included. In this case 50 nl DMSO were used instead of compounds. A 100% inhibition corresponded to the mean value of control measurements (usually 32 data points) where all reagents except BCL-2 were included. IC50 values were determined by regression analysis based on a 4 parameter equation (minimum, maximum, IC50, Hill; Y=Max+(Min−Max)/(1+(X/IC50)^HiII) using the Screener Software (Genedata).

[2] = system: SUDHL10; assay: Induction of caspase-3/7 activity (Assay 4), SUDHL10; format: cell-based; details: Homo sapiens, SU-DHL10, 3 h, caspase-3/7 induction, median
Outline: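 DLBCL cells were exposed to compounds for 3 hours at 37 °C, then caspase-3/7 activation was read with Caspase-Glo 3/7 reagent. After subtracting medium-only background, EC50s were derived with fixed C0=1 and the reference compound's maximal induction as plateau.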

Sequence of BCL-2 (P10415 other isoform, or with tags, fused parts or gaps): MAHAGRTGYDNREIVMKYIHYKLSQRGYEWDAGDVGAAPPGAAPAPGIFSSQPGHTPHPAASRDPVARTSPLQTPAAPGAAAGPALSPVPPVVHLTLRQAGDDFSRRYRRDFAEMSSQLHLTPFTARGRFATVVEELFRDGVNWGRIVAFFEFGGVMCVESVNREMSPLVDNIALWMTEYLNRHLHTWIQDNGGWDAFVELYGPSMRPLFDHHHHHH

| Structure (SMILES) | IC50 [1] | EC50 [2] |
| --- | --- | --- |
| CCc1c2c(nn1C)CN(CCCN1CCCC1=O)S(=O)(=O)CCCn1c(C(=O)O)c(CCCOc3cccc4ccccc34)c3cccc-2c31 (racemic) [Example 13, (rac)-12-Ethyl-11-methyl-1-(3-(naphthalen-1-yloxy)propyl)-8-(3-(2-oxopyrrolidin-1-yl)propyl)-5,6,9,11-tetrahydro-4H,8H-pyrazolo[3′,4′:4,5][1]thia[2,8]diazacycloundecino[6,7,8-hi]indole-2-carboxylic acid 7,7-dioxide] | > 20 µM | 16 µM |
| CCc1c2c(nn1C)CN(CCN1CCCCC1)S(=O)(=O)CCCn1c(C(=O)O)c(CCCOc3cccc4ccccc34)c3cccc-2c31 (racemic) [Example 14, (rac)-12-Ethyl-11-methyl-1-(3-(naphthalen-1-yloxy)propyl)-8-(2-(piperidin-1-yl)ethyl)-4,5,6,8,9,11-hexahydropyrazolo[3′,4′:4,5][1,2,8]thiadiazacycloundecino[6,7,8-hi]indole-2-carboxylic acid 7,7-dioxide 2,2,2-trifluoroacetic acid salt] | > 20 µM | 9.2 µM |
| CCc1c2c(nn1C)CN(CCCN1CCOCC1)S(=O)(=O)CCCn1c(C(=O)O)c(CCCOc3cccc4ccccc34)c3cccc-2c31 (racemic) [Example 15, (rac)-12-Ethyl-11-methyl-8-(3-morpholinopropyl)-1-(3-(naphthalen-1-yloxy)propyl)-4,5,6,8,9,11-hexahydropyrazolo[3′,4′:4,5][1,2,8]thiadiazacycloundecino[6,7,8-hi]indole-2-carboxylic acid 7,7-dioxide 2,2,2-trifluoroacetic acid salt] | > 20 µM | 6.4 µM |
| CCc1c2c(nn1C)CN(CCCN1CCCC1)S(=O)(=O)CCCn1c(C(=O)O)c(CCCOc3cccc4ccccc34)c3cccc-2c31 (racemic) [Example 16, (rac)-12-Ethyl-11-methyl-1-(3-(naphthalen-1-yloxy)propyl)-8-(3-(pyrrolidin-1-yl)propyl)-5,6,9,11-tetrahydro-4H,8H-pyrazolo[3′,4′:4,5][1]thia[2,8]diazacycloundecino[6,7,8-hi]indole-2-carboxylic acid 7,7-dioxide] | > 20 µM | > 33 µM |
| CCc1c2c(nn1C)CNS(=O)(=O)CCCn1c(C(=O)O)c(CCCOc3cccc4ccccc34)c3cccc-2c31 (racemic) [Example 17, (rac)-12-Ethyl-11-methyl-1-(3-(naphthalen-1-yloxy)propyl)-4,5,6,8,9,11-hexahydropyrazolo[3′,4′:4,5][1,2,8]thiadiazacycloundecino[6,7,8-hi]indole-2-carboxylic acid 7,7-dioxide] | > 20 µM | 21 µM |
| CCc1c2c(nn1C)C(C)N(C)S(=O)(=O)CCCn1c(C(=O)O)c(CCCOc3cccc4ccccc34)c3cccc-2c31 (racemic) [Example 18, 12-Ethyl-8,9,11-trimethyl-1-(3-(naphthalen-1-yloxy)propyl)-5,6,9,11-tetrahydro-4H,8H-pyrazolo[3′,4′:4,5][1]thia[2,8]diazacycloundecino[6,7,8-hi]indole-2-carboxylic acid 7,7-dioxide (Mixture of Stereoisomers)] | > 20 µM | 8.4 µM |
| Cc1c2c(nn1C)CN(C)S(=O)(=O)CCCn1c(C(=O)O)c(CCCOc3cccc4cc(F)ccc34)c3ccc(F)c-2c31 (racemic) [Example 25, (rac)-13-Fluoro-1-(3-((6-fluoronaphthalen-1-yl)oxy)propyl)-8,11,12-trimethyl-5,6,9,11-tetrahydro-4H,8H-pyrazolo[3′,4′:4,5][1]thia[2,8]diazacycloundecino[6,7,8-hi]indole-2-carboxylic acid 7,7-dioxide] | > 20 µM and 51 µM and 46 µM | 1.5 µM |
| Cc1c2c(nn1C)CN(C)S(=O)(=O)CCCn1c(C(=O)O)c(CCCOc3cccc4ccccc34)c3ccc(F)c-2c31 (racemic) [Example 26, (rac)-13-Fluoro-8,11,12-trimethyl-1-(3-(naphthalen-1-yloxy)propyl)-5,6,9,11-tetrahydro-4H,8H-pyrazolo[3′,4′:4,5][1]thia[2,8]diazacycloundecino[6,7,8-hi]indole-2-carboxylic acid 7,7-dioxide] | > 20 µM | 3.5 µM |
| Cc1c2c(nn1C)CN(C)S(=O)(=O)CCCn1c(C(=O)O)c(CCCOc3cccc4c3CCC4)c3ccc(F)c-2c31 (racemic) [Example 27, (rac)-1-(3-((2,3-Dihydro-1H-inden-4-yl)oxy)propyl)-13-fluoro-8,11,12-trimethyl-5,6,9,11-tetrahydro-4H,8H-pyrazolo[3′,4′:4,5][1]thia[2,8]diazacycloundecino[6,7,8-hi]indole-2-carboxylic acid 7,7-dioxide] | > 20 µM | 2.4 µM |
| Cc1cc(OCCCc2c(C(=O)O)n3c4c(c(F)ccc24)-c2c(nn(C)c2C)CN(C)S(=O)(=O)CCC3)cc(C)c1Cl (racemic) [Example 28, (rac)-1-(3-(4-Chloro-3,5-dimethylphenoxy)propyl)-13-fluoro-8,11,12-trimethyl-5,6,9,11-tetrahydro-4H,8H-pyrazolo[3′,4′:4,5][1]thia[2,8]diazacycloundecino[6,7,8-hi]indole-2-carboxylic acid 7,7-dioxide] | > 20 µM | 11 µM |
| Cc1c2c(nn1C)CN(C)S(=O)(=O)CCCn1c(C(=O)O)c(CCCOc3cccc4c3CCCC4)c3ccc(F)c-2c31 (racemic) [Example 29, (rac)-13-Fluoro-8,11,12-trimethyl-1-(3-((5,6,7,8-tetrahydronaphthalen-1-yl)oxy)propyl)-5,6,9,11-tetrahydro-4H,8H-pyrazolo[3′,4′:4,5][1]thia[2,8]diazacycloundecino[6,7,8-hi]indole-2-carboxylic acid 7,7-dioxide] | > 20 µM | 4.5 µM |
| CCc1c2c(nn1C)CN(C)S(=O)(=O)CCCn1c(C(=O)O)c(CCCOc3cccc4ccccc34)c3ccc(F)c-2c31 (racemic) [Example 31, (rac)-12-Ethyl-13-fluoro-8,11-dimethyl-1-(3-(naphthalen-1-yloxy)propyl)-5,6,9,11-tetrahydro-4H,8H-pyrazolo[3′,4′:4,5][1]thia[2,8]diazacycloundecino[6,7,8-hi]indole-2-carboxylic acid 7,7-dioxide] | > 20 µM | 1.9 µM |
| CCc1c2c(nn1C)CN(C)S(=O)(=O)CCCn1c(C(=O)O)c(CCCOc3cccc4c3CCC4)c3ccc(F)c-2c31 (racemic) [Example 32, (rac)-1-(3-((2,3-Dihydro-1H-inden-4-yl)oxy)propyl)-12-ethyl-13-fluoro-8,11-dimethyl-5,6,9,11-tetrahydro-4H,8H-pyrazolo[3′,4′:4,5][1]thia[2,8]diazacycloundecino[6,7,8-hi]indole-2-carboxylic acid 7,7-dioxide] | > 20 µM | 1.1 µM |
| CCc1c2c(nn1C)CN(C)S(=O)(=O)CCCn1c(C(=O)O)c(CCCOc3cc(C)c(Cl)c(C)c3)c3ccc(F)c-2c31 (racemic) [Example 33, (rac)-1-(3-(4-Chloro-3,5-dimethylphenoxy)propyl)-12-ethyl-13-fluoro-8,11-dimethyl-5,6,9,11-tetrahydro-4H,8H-pyrazolo[3′,4′:4,5][1]thia[2,8]diazacycloundecino[6,7,8-hi]indole-2-carboxylic acid 7,7-dioxide] | > 20 µM | 5.1 µM |
